Patent US20090285773A1, “Hepatitis C Virus Inhibitors” (Bristol-Myers Squibb Company, priority 2008, published 2009)

Key:
human liver cathepsin B = molecular target: T1, human liver cathepsin B (Homo sapiens, UniProt P07858); experiment: Specificity assay, cathepsin B; type: biochemical; conditions: read-out: Cathepsin B activity in the specificity assays
T1 construct: host or cells: human liver
Protocol: The specificities of compounds of the present disclosure were determined against a variety of serine proteases: human neutrophil elastase (HNE), porcine pancreatic elastase (PPE) and human pancreatic chymotrypsin and one cysteine protease: human liver cathepsin B. In all cases a 96-well plate format protocol using a fluorometric Amino-Methyl-Coumarin (AMC) substrate specific for each enzyme was used as described previously (PCT Patent Application No. WO 00/09543) with some modifications to the serine protease assays. All enzymes were purchased from Sigma, EMDbiosciences while the substrates were from Bachem, Sigma and EMDbiosciences.
Compound concentrations varied from 100 to 0.4 μM depending on their potency. The enzyme assays were each initiated by addition of substrate to enzyme-inhibitor pre-incubated for 10 min at room temperature and hydrolysis to 15% conversion as measured on cytofluor. […]
The percentage of inhibition was calculated using the formula: […]

[1] = molecular target: T2, HCV NS3/4A protease complex, J4L6S strain (1b genotype) (Hepatitis C virus genotype 1b, UniProt O92972, C1454S/C1711G); experiment: FRET peptide assay, HCV NS3/4A protease complex, J4L6S strain; type: biochemical
T2 construct: DNA encoding the recombinant HCV NS3/4A protease complex (amino acids 1027 to 1711) for these strains; His tag (inferred from pET21b vector and Ni-NTA purification); made in house; host or cells: Escherichia coli BL21 (DE3)
T2 sequence (O92972 1027-1711 C1454S/C1711G, one chain of several): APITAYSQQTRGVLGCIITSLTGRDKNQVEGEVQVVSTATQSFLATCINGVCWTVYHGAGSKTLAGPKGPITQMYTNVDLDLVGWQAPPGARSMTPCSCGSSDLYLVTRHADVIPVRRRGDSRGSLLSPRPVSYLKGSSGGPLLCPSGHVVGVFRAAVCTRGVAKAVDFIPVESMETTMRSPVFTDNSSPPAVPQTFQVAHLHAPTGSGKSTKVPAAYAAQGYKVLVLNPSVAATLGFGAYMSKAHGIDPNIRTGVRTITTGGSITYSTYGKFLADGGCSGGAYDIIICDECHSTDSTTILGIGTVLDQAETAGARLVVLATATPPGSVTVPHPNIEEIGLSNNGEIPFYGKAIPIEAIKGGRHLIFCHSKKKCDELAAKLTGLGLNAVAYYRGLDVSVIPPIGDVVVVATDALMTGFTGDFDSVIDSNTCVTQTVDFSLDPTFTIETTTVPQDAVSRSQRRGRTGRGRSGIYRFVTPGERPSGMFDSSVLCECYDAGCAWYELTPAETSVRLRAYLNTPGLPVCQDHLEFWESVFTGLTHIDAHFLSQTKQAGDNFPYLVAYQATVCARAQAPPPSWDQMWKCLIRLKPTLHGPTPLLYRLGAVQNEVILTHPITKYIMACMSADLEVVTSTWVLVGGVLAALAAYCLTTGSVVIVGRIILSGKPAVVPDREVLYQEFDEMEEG
Description: HCV NS3 protease complexes, derived from the BMS strain, H77 strain or J4L6S strain, were generated, as described below. These purified recombinant proteins were generated for use in a homogeneous assay (see below) to provide an indication of how effective compounds of the present disclosure would be in inhibiting HCV NS3 proteolytic activity.
Serum from an HCV-infected patient was obtained from Dr. T. Wright, San Francisco Hospital. An engineered full-length cDNA (compliment deoxyribonucleic acid) template of the HCV genome (BMS strain) was constructed from DNA fragments obtained by reverse transcription-PCR (RT-PCR) of serum RNA (ribonucleic acid) and using primers selected on the basis of homology between other genotype 1a strains. From the determination of the entire genome sequence, a genotype 1a was assigned to the HCV isolate according to the classification of Simmonds et al. (See P Simmonds, K A Rose, S Graham, S W Chan, F McOmish, B C Dow, E A Follett, P L Yap and H Marsden, J. Clin. Microbiol., 31(6), 1493-1503 (1993)). […]

## COc1ccc2c(O[C@@H]3C[C@H]4C(=O)N[C@]5(C(=O)NS(=O)(=O)C6CC6)C[C@H]5/C=C\CCCCC[C@H](Nc5ccc(OC)nc5)C(=O)N4C3)nccc2c1 (single isomer, unassigned) [Compound 1]
Human liver cathepsin B
  IC50: > 25000 nM
[1]
  IC50: 1.2 nM
